Reference: patent publication US11725037B2, “Peptide dual agonists of GIPR and GLP2R” (University of Copenhagen, priority 2017, dated 2023)
Peptide text beside a SMILES is read from it. * marks the point of attachment. Palmitoyl = CCCCCCCCCCCCCCCC(=O)*

Experiments:
[1] = molecular target: T1, human GLP-2 receptor (Homo sapiens, UniProt O95838); assay: cAMP accumulation assay (HitHunter cAMP XS) in transiently transfected COS-7 cells expressing the human GLP-2 receptor; type: cell-based; conditions: for Emax at 10 µM: COS-7, read-out: Emax (10 μM), GLP-2 receptor; for fold (fold change of native GLP-2), GLP-2 receptor: EC50 relative to native GLP-2
T1 construct: host or cells: COS-7 (transient, calcium phosphate; pCMV-Script vector)
T1 sequence (O95838 1-553): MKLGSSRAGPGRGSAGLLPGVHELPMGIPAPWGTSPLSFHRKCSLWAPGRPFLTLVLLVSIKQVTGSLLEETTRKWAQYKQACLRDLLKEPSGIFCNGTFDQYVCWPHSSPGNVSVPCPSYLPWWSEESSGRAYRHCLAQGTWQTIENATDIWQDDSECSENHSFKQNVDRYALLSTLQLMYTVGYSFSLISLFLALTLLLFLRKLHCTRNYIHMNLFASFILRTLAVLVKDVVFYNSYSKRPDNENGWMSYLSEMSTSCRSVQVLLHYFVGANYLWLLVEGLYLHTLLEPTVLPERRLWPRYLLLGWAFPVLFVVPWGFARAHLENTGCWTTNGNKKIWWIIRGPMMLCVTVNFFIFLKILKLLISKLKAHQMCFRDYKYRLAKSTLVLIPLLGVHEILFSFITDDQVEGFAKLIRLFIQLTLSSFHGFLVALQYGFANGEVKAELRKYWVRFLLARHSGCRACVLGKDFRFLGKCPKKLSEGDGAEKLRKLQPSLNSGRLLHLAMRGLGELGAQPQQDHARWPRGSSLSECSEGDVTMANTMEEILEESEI
Procedure: (§1) The day after, the cells were washed twice with Hepes buffered saline (HBS) buffer and incubated with HBS and 1 mM 3-isobutyl-1-methylxanthine (IBMX) for 30 min at 37° C. Ligands were added and incubated for 30 min at 37° C. The HitHunter™ cAMP XS assay (DiscoveRx) was carried out according to the manufacturer's instructions.

[2] = molecular target: T2, human GIP receptor (Homo sapiens, UniProt P48546); assay: cAMP accumulation assay (HitHunter cAMP XS) in transiently transfected COS-7 cells expressing the human GIP receptor; type: cell-based; conditions: for Emax at 10 µM: COS-7, read-out: Emax (10 μM), GIP receptor; for fold (fold change of native GIP), GIP receptor: EC50 relative to native GIP; for EC50: logEC50, GIP receptor, log value, cAMP, COS-7
T2 construct: host or cells: COS-7 (transient, calcium phosphate; pCMV-Script vector)
T2 sequence (P48546 22-466): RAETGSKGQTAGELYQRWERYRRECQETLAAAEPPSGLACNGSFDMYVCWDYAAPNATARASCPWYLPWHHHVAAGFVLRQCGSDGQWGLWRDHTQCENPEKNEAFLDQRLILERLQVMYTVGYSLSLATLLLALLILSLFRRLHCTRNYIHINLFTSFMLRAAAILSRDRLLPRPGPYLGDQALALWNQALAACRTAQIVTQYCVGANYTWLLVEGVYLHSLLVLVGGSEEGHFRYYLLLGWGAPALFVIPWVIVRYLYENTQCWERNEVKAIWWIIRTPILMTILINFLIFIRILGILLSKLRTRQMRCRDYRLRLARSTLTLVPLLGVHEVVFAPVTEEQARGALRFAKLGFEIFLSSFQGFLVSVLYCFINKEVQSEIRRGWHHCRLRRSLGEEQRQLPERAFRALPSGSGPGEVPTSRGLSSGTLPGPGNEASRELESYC
Procedure: as §1

Emax at 10 µM [1]	potency and efficacy on the GLP-2R compared with native GLP-2, in words ([1]; Table 1)	fold (fold change of native GLP-2), GLP-2 receptor ([1]; Table 1)	Emax at 10 µM [2]	potency (and efficacy) on the GIP receptor compared with native GIP, in words ([2]; Table 1)	fold (fold change of native GIP), GIP receptor ([2]; Table 1)	fold (fold change of native GLP-2), GLP-2 receptor ([1]; Table 2)	fold (fold change of native GIP), GIP receptor ([2]; Table 2)	EC50 ([2]; Table 2)	EC50 ([1]; logEC50, GLP-2 receptor, Table 2, cAMP, COS-7)	SMILES
94%	almost the same potency and efficacy	4.4 fold	89%	almost the same potency and efficacy	7.4 fold	–	–	–	–	CC[C@H](C)[C@H](NC(=O)[C@H](Cc1ccccc1)NC(=O)[C@H](CC(=O)O)NC(=O)[C@H](CCCNC(=N)N)NC(=O)[C@H](C)NC(=O)[C@H](C)NC(=O)[C@H](CC(C)C)NC(=O)[C@H](CC(N)=O)NC(=O)[C@H](CC(=O)O)NC(=O)[C@H](CC(C)C)NC(=O)[C@@H](NC(=O)[C@@H](NC(=O)[C@H](CO)NC(=O)[C@H](Cc1ccc(O)cc1)NC(=O)[C@H](CC(=O)O)NC(=O)[C@H](CO)NC(=O)[C@@H](NC(=O)[C@H](Cc1ccccc1)NC(=O)[C@@H](NC(=O)CNC(=O)[C@H](CC(=O)O)NC(=O)[C@H](C)NC(=O)[C@@H](N)Cc1c[nH]cn1)[C@@H](C)O)[C@@H](C)CC)[C@@H](C)O)[C@@H](C)CC)C(=O)N[C@@H](CC(N)=O)C(=O)N[C@@H](Cc1c[nH]c2ccccc12)C(=O)N[C@@H](CC(C)C)C(=O)N[C@H](C(=O)N[C@@H](CCC(N)=O)C(=O)N[C@H](C(=O)N[C@@H](CCCCN)C(=O)N[C@H](C(=O)N[C@H](C(=O)N[C@@H](CCCCN)C(=O)O)[C@@H](C)O)[C@@H](C)CC)[C@@H](C)O)[C@@H](C)CC [Co-agonist 18]
75%	–	–	94%	–	–	5.0 fold	381 fold	33.9 nM	–	CCCCCCCCCCCCCCCC(=O)NCCCC[C@H](NC(=O)[C@H](C)NC(=O)[C@H](C)NC(=O)[C@H](CC(C)C)NC(=O)[C@H](CC(N)=O)NC(=O)[C@H](CC(=O)O)NC(=O)[C@H](CC(C)C)NC(=O)[C@@H](NC(=O)[C@@H](NC(=O)[C@H](CO)NC(=O)[C@H](Cc1ccc(O)cc1)NC(=O)[C@H](CC(=O)O)NC(=O)[C@H](CO)NC(=O)[C@H](CO)NC(=O)[C@H](Cc1ccccc1)NC(=O)[C@@H](NC(=O)CNC(=O)[C@H](CC(=O)O)NC(=O)[C@H](C)NC(=O)[C@@H](N)Cc1c[nH]cn1)[C@@H](C)O)[C@@H](C)O)[C@@H](C)CC)C(=O)N[C@@H](CC(=O)O)C(=O)N[C@@H](Cc1ccccc1)C(=O)N[C@H](C(=O)N[C@@H](CC(N)=O)C(=O)N[C@@H](Cc1c[nH]c2ccccc12)C(=O)N[C@@H](CC(C)C)C(=O)N[C@H](C(=O)N[C@@H](CCC(N)=O)C(=O)N[C@H](C(=O)N[C@@H](CCCCN)C(=O)N[C@H](C(=O)N[C@H](C(=O)N[C@@H](CC(=O)O)C(=O)O)[C@@H](C)O)[C@@H](C)CC)[C@@H](C)O)[C@@H](C)CC)[C@@H](C)CC [Co-agonist 21] (H-HADGTFSSDYSTILDNLAAK(Palmitoyl)DFINWLIQTKITD-OH; N-terminus and C-terminus assumed)
72%	–	–	100%	–	–	–	–	0.407 nM	1.32 nM	CCCCCCCCCCCCCCCC(=O)N[C@@H](Cc1c[nH]cn1)C(=O)N[C@@H](C)C(=O)N[C@@H](CC(=O)O)C(=O)NCC(=O)N[C@H](C(=O)N[C@@H](Cc1ccccc1)C(=O)N[C@@H](CO)C(=O)N[C@@H](CO)C(=O)N[C@@H](CC(=O)O)C(=O)N[C@@H](Cc1ccc(O)cc1)C(=O)N[C@@H](CO)C(=O)N[C@H](C(=O)N[C@H](C(=O)N[C@@H](CC(C)C)C(=O)N[C@@H](CC(=O)O)C(=O)N[C@@H](CC(N)=O)C(=O)N[C@@H](CC(C)C)C(=O)N[C@@H](C)C(=O)N[C@@H](C)C(=O)N[C@@H](CCCNC(=N)N)C(=O)N[C@@H](CC(=O)O)C(=O)N[C@@H](Cc1ccccc1)C(=O)N[C@H](C(=O)N[C@@H](CC(N)=O)C(=O)N[C@@H](Cc1c[nH]c2ccccc12)C(=O)N[C@@H](CC(C)C)C(=O)N[C@H](C(=O)N[C@@H](CCC(N)=O)C(=O)N[C@H](C(=O)N[C@@H](CCCCN)C(=O)N[C@H](C(=O)N[C@H](C(=O)N[C@@H](CC(=O)O)C(=O)O)[C@@H](C)O)[C@@H](C)CC)[C@@H](C)O)[C@@H](C)CC)[C@@H](C)CC)[C@@H](C)CC)[C@@H](C)O)[C@@H](C)O [Co-agonist 22] (Palmitoyl-HADGTFSSDYSTILDNLAARDFINWLIQTKITD-OH)
